The values below are quoted from earlier work in patent US10231995B2, “Selenium-containing compositions and uses thereof” (SELO MEDICAL GMBH, priority 2001, dated 2019).

Where two headings read alike, the source gives them in different places.

Consider `O=[Se](O)O` [selenite], for which the “Eo standard redox potential” value (acidic medium) is listed as −0.740 (acidic medium) Volt and the “Eo standard redox potential” value (basic medium) is listed as “+0.366 (basic medium) Volt”.
